# Experimental data reported in US20250032651A1, “[177LU] LUTETIUM-PSMA I&T COMPOSITION AND DOSIMETRY, KIT, METHOD OF MAKING, AND METHOD OF USING THEREOF” (Curium US LLC, priority 2022, published 2025).
# Experiment: Normal organ dosimetry Cycle 1: SPECT/CT, TIACs, OLINDA 2.2.3 absorbed radiation dose
# Assay type: in vivo, human
# Conditions: for Absorbed Dose, Mean / Absorbed Dose, max / Absorbed Dose, median / Absorbed Dose, min: Cycle 1, n = 26
# Procedure: This Example presents the biodistribution, dosimetry, and pharmacokinetics (PK) results of a PK/Dosimetry sub-study performed as part of a Phase III trial. Twenty-seven (27) patients were administered a target activity of 7.4±10% GBq of ^177Lu-PSMA-I&T and underwent single photon emission computed tomography (SPECT)/computed tomography (CT) imaging at four timepoints (4 h, 24 h, 48 h, and 168 h). Image data was analysed to compute time-activity curves (TACs) and subsequently time-integrated activity coefficients (TIACs) in each organ of interest and in organs showing appreciable and meaningful ^177Lu-PSMA-I&T activity. Organ Level Internal Dose Assessment (OLINDA 2.2.3) was used to compute organ and whole body absorbed radiation doses for each patient.
# All participating sites underwent a rigorous site setup process during which all dose calibrators, scanners, and gamma counters used in the sub-study were calibrated. Sites were allowed to enroll patients in the sub-study only after the completion and approval of all site setup processes by Invicro. Patients underwent SPECT/CT imaging, with anatomical coverage typically extending from the salivary glands to the pelvis, following the administration of a targeted 7.4±10% GBq of ^177Lu-PSMA-I&T at cycle 1. SPECT/CT imaging was performed at four timepoints: 4 h, 24 h, 48 h, and 168 h post-injection. Additionally, a subset of patients imaged at Cycle 1 (16 out of 27), were also imaged at Cycle 3 (Table 2).
# The imaging data was analyzed using Invicro's VivoQuant software, a validated software used in a 21 CFR § 11-compliant workflow. The general quantification approach was based on the principles detailed in the Medical Internal Radiation Dose (MIRD) Pamphlet No. 16, No 23, and No 26 as appropriate.
# Volume of interest (VOI) (kidneys, bladder, liver, lumbar vertebrae L2-L4, lacrimal glands, salivary glands [parotid and submandibular glands], and whole body) were delineated on each dataset by a trained image analyst. […] Organs were segmented either by drawing the entire contour of the organ, or by placing a sphere in a representative region of the organ and then multiplying by the organ's effective mass (based on patient's height and weight). Segmentation methods for each organ are specified in Table 3 and were consistently applied to each patient.
# Clearance of the radiopharmaceutical was derived from a data-appropriate fit of each organ's TAC. Depending on the TAC's shape, the data was fitted with the sum of one, two, or three exponentials, or using a rise and fall model. Fitting was performed with in-house Python software. TIACs were calculated through analytical integration of the curve fit extrapolated to infinity. […] A whole-body TAC was derived from delineating the imaged body. The remainder activity was determined by subtracting the cumulative organ TIACs from the whole body TIAC.
# Organ TIACs were input into OLINDA 2.2.3 for the computation of organ and whole-body absorbed doses, using International Commission on Radiological Protection (ICRP)-103 weighing factors. The ICRP-89 derived male phantom was used for dose estimation. Organs and body mass as defined by ICRP-89 were scaled based on height and mass using patient effective mass.^4 The voiding bladder model as implemented in OLINDA was used to determine bladder TIAC, assuming a voiding interval of 4 hours. The human alimentary tract model (HAT model) described in ICRP 100 and implemented in OLINDA was used to compute doses to the small intestine, right colon, left colon and rectum for patients showing clearance through the GI tract. The fraction of injected activity (fIA) cleared via the GI tract was determined by taking the peak fIA in the GI tract over all the imaging timepoints. […] The Red Marrow mass in L2-L4 was assumed to be 6.7% of the total red marrow mass.
# [1] = Kidneys, 16 patients imaged at cycle 1 and 3
# [2] = Lacrimal Glands (OLINDA sphere model), 16 patients imaged at cycle 1 and 3
# [3] = Lacrimal Glands, N = 16, OLINDA sphere model
# [4] = Left colon, 16 patients imaged at cycle 1 and 3
# [5] = Liver, 16 patients imaged at cycle 1 and 3
# [6] = Lungs, 16 patients imaged at cycle 1 and 3
# [7] = Osteogenic cells, 16 patients imaged at cycle 1 and 3
# [8] = Pancreas, 16 patients imaged at cycle 1 and 3
compound,measurement,setting,value
"O=C([O-])CC[C@H](NC(=O)N[C@@H](CCCCNC(=O)CCCCCCC(=O)NCCCC[C@@H](NC(=O)[C@@H](Cc1ccccc1)NC(=O)[C@@H](Cc1ccc(O)c(I)c1)NC(=O)CC[C@H](C(=O)[O-])N1CCN(CC(=O)[O-])CCN(CC(=O)[O-])CCN(CC(=O)[O-])CC1)C(=O)[O-])C(=O)[O-])C(=O)[O-].[177Lu+3].[H+].[H+].[H+].[H+].[H+] [^177Lu-PSMA I&T, (3S,7S,26R,29R,32R,37R)-29-benzyl-32-(4-hydroxy-3-iodobenzyl)-5,13,20,28,31,34-hexaoxo-37-(4,7,10-tris(carboxymethyl)-1,4,7,10-tetraazacyclododecan-1-yl)-4,6,12,21,27,30,33-heptaazaheptatriacontane-1,3,7,26,37-pentacarboxylic acid; lutetium-177 (III)]","Absorbed Dose in Cycle 1, min","Heart wall, N = 16",0.00 Gy/GBq
same,"Absorbed Dose in Cycle 1, Mean",[1],0.41 Gy/GBq
same,"Absorbed Dose in Cycle 1, max",[1],0.81 Gy/GBq
same,"Absorbed Dose in Cycle 1, min",[1],0.17 Gy/GBq
same,"Absorbed Dose, Mean",Kidneys,0.41 Gy/GBq
same,"Absorbed Dose, max",Kidneys,0.81 Gy/GBq
same,"Absorbed Dose, median",Kidneys,0.37 Gy/GBq
same,"Absorbed Dose, min",Kidneys,0.17 Gy/GBq
same,"Absorbed Dose in Cycle 1, Mean","Kidneys, N = 16",0.41 Gy/GBq
same,"Absorbed Dose in Cycle 1, max","Kidneys, N = 16",0.81 Gy/GBq
same,"Absorbed Dose in Cycle 1, min","Kidneys, N = 16",0.17 Gy/GBq
same,"Absorbed Dose in Cycle 1, Mean",[2],0.39 Gy/GBq
same,"Absorbed Dose in Cycle 1, max",[2],1.19 Gy/GBq
same,"Absorbed Dose in Cycle 1, min",[2],0.04 Gy/GBq
same,"Absorbed Dose, Mean",Lacrimal Glands,0.40 Gy/GBq
same,"Absorbed Dose, max",Lacrimal Glands,1.19 Gy/GBq
same,"Absorbed Dose, median",Lacrimal Glands,0.26 Gy/GBq
same,"Absorbed Dose, min",Lacrimal Glands,0.04 Gy/GBq
same,"Absorbed Dose in Cycle 1, Mean",[3],0.39 Gy/GBq
same,"Absorbed Dose in Cycle 1, max",[3],1.19 Gy/GBq
same,"Absorbed Dose in Cycle 1, min",[3],0.04 Gy/GBq
same,"Absorbed Dose in Cycle 1, Mean",[4],0.52 Gy/GBq
same,"Absorbed Dose in Cycle 1, max",[4],1.53 Gy/GBq
same,"Absorbed Dose in Cycle 1, min",[4],0.01 Gy/GBq
same,"Absorbed Dose, Mean",Left colon,0.47 Gy/GBq
same,"Absorbed Dose, max",Left colon,1.53 Gy/GBq
same,"Absorbed Dose, median",Left colon,0.41 Gy/GBq
same,"Absorbed Dose, min",Left colon,0.01 Gy/GBq
same,"Absorbed Dose in Cycle 1, Mean","Left colon, N = 16",0.52 Gy/GBq
same,"Absorbed Dose in Cycle 1, max","Left colon, N = 16",1.53 Gy/GBq
same,"Absorbed Dose in Cycle 1, min","Left colon, N = 16",0.01 Gy/GBq
same,"Absorbed Dose in Cycle 1, Mean",[5],0.04 Gy/GBq
same,"Absorbed Dose in Cycle 1, max",[5],0.10 Gy/GBq
same,"Absorbed Dose in Cycle 1, min",[5],0.01 Gy/GBq
same,"Absorbed Dose, Mean",Liver,0.04 Gy/GBq
same,"Absorbed Dose, max",Liver,0.10 Gy/GBq
same,"Absorbed Dose, median",Liver,0.03 Gy/GBq
same,"Absorbed Dose, min",Liver,0.01 Gy/GBq
same,"Absorbed Dose in Cycle 1, Mean","Liver, N = 16",0.04 Gy/GBq
same,"Absorbed Dose in Cycle 1, max","Liver, N = 16",0.10 Gy/GBq
same,"Absorbed Dose in Cycle 1, min","Liver, N = 16",0.01 Gy/GBq
same,"Absorbed Dose in Cycle 1, Mean",[6],0.01 Gy/GBq
same,"Absorbed Dose in Cycle 1, max",[6],0.07 Gy/GBq
same,"Absorbed Dose in Cycle 1, min",[6],0.00 Gy/GBq
same,"Absorbed Dose, Mean",Lungs,0.01 Gy/GBq
same,"Absorbed Dose, max",Lungs,0.07 Gy/GBq
same,"Absorbed Dose, median",Lungs,0.01 Gy/GBq
same,"Absorbed Dose, min",Lungs,0.00 Gy/GBq
same,"Absorbed Dose in Cycle 1, Mean","Lungs, N = 16",0.01 Gy/GBq
same,"Absorbed Dose in Cycle 1, max","Lungs, N = 16",0.07 Gy/GBq
same,"Absorbed Dose in Cycle 1, min","Lungs, N = 16",0.00 Gy/GBq
same,"Absorbed Dose in Cycle 1, Mean",[7],0.04 Gy/GBq
same,"Absorbed Dose in Cycle 1, max",[7],0.19 Gy/GBq
same,"Absorbed Dose in Cycle 1, min",[7],0.00 Gy/GBq
same,"Absorbed Dose, Mean",Osteogenic cells,0.05 Gy/GBq
same,"Absorbed Dose, max",Osteogenic cells,0.29 Gy/GBq
same,"Absorbed Dose, median",Osteogenic cells,0.02 Gy/GBq
same,"Absorbed Dose, min",Osteogenic cells,0.00 Gy/GBq
same,"Absorbed Dose in Cycle 1, Mean","Osteogenic cells, N = 16",0.04 Gy/GBq
same,"Absorbed Dose in Cycle 1, max","Osteogenic cells, N = 16",0.19 Gy/GBq
same,"Absorbed Dose in Cycle 1, min","Osteogenic cells, N = 16",0.00 Gy/GBq
same,"Absorbed Dose in Cycle 1, Mean",[8],0.02 Gy/GBq
same,"Absorbed Dose in Cycle 1, max",[8],0.07 Gy/GBq
same,"Absorbed Dose in Cycle 1, min",[8],0.00 Gy/GBq
same,"Absorbed Dose, Mean",Pancreas,0.02 Gy/GBq
same,"Absorbed Dose, max",Pancreas,0.07 Gy/GBq
same,"Absorbed Dose, median",Pancreas,0.01 Gy/GBq
